Test: Human HepG2 cell viability assay in 384 well format
Assay type: toxicity, cell-based
Parameters: dose 125 nL, time 70.5 hour; cytotoxicity at 70.5 h: concentration not given beside the values
Details: HepG2 cells, read-out: Inhibition

Row | SMILES | cytotoxicity at 70.5 h [%]
1 | N#CCCCOc1cccnc1NC(=O)CCC1CCCC1 | -0.625
2 | CC(=O)N1CC[C@H]2CC(=O)N(C3CCCCC3)CC[C@H]2C1 | -2.68
3 | CCN(Cc1ccccc1Cl)Cn1nc(C)c2c(C)onc2c1=O | -6.62
4 | COC(=O)c1cccc(S(=O)(=O)NC(=O)c2cccc(OC)c2OC)c1 | -6.86
5 | c1csc(CN2CCc3onc(Cn4cccc4)c3C2)c1 | 2.81
6 | O=C(c1ccc(-n2cccn2)nc1)N1CCCC(c2cnccn2)C1 (configuration not stated) | -4.09
7 | Cn1ccc2cc(C(=O)Nc3nc[nH]n3)ccc21 | 15.8
8 | CCc1noc(C)c1C(=O)NCc1ccccn1 | -0.245
9 | Cc1cc(CN(C)C(=O)Nc2cnc3c(c2)c(C)nn3C)no1 | -8.11
10 | O=C(CN1CCOc2ccccc2C1)NCc1cc2n(n1)CCNC2 | -2.02
11 | Cc1nnc(N2CC[C@H]3O[C@H](C(=O)NCc4ccccn4)CC[C@H]32)s1 | -6.62
12 | CCOC1CCCN(C(=O)c2[nH]nc(C3CC3)c2Br)C1 (configuration not stated) | -6.37
13 | CN(CC(=O)N1CCCC1)C(=O)c1ccccc1Nc1ccccc1 | 18.3
14 | CC(=O)Nc1ccc(-n2ccc3nc(N4CCCC4)ncc3c2=O)cc1 | 1.42
15 | N#Cc1cccnc1N1CCC2(CCCN(C3CCOCC3)C2=O)C1 (configuration not stated) | -3.03
16 | CCOc1ccc(CN2CC[C@@](C)(O)[C@@H](Cc3ccccc3)C2)cn1 | -1.83
17 | CNC(=O)CC1CCN(C(=O)Nc2ccc(-c3cc[nH]n3)cc2)CC1 | -4.66
18 | CCC(C)NC(=O)c1nn(C)c(NC(=O)c2ccccc2OC)c1F (configuration not stated) | -10.8
19 | CS(=O)(=O)N1CCO[C@@H]2CN(Cc3ccc(F)cc3)CC[C@@H]2C1 | -4.41
20 | COC(=O)c1sccc1S(=O)(=O)N1CCc2c(ncnc2N(C)C)C1 | -1.11
21 | CCCN1CCC(c2nc3ccc(-c4ccncc4)cn3n2)CC1 | 19.7

Row | SMILES | cytotoxicity at 70.5 h [%]
22 | NCC1[C@H]2CN(CCc3ccccc3)C[C@@H]12 (some centres not stated) | 43.3
23 | CNc1cccc(C2CN(C(=O)c3c[nH]cn3)CCO2)n1 (configuration not stated) | 5.85
24 | Cc1ccn(-c2ccc(N3CCCN(Cc4ccccc4)CC3)nn2)n1 | 2.19
25 | CCNC(=O)CN(CC)C(=O)c1csc(Cc2ccccc2F)n1 | -13.1
26 | O=S1(=O)COCCN1Cc1ccc(Cl)c(Cl)c1 | -6.71
27 | CC(C)(CN1CCC(Cc2cccc(C(=O)O)c2)C1)N1CCOCC1 (configuration not stated) | -9.68
28 | Cc1ccc(C(C)NC(=O)CNCCn2cccn2)cc1C (configuration not stated) | -10.7
29 | NC1CCN(C(=O)c2c(F)cccc2Br)CC1 | -15.6
30 | CCCN1CCC2(C1)c1ccccc1S(=O)(=O)N2C (configuration not stated) | -0.72
31 | CCC(CNC(=O)Cc1c(C)noc1C)N1CCCC1 (configuration not stated) | -6.77
32 | COCCNC(=O)Cn1nc(C(C)C)c2cnn(C(C)(C)C)c2c1=O | -3.75
33 | Cc1cc(C)c2ncn(CC(C)(C)CO)c(=O)c2c1 | -6.8
34 | CCc1nccn1C1CCCN(C(=O)c2ccc(C(=O)NC)nc2)C1 (configuration not stated) | -5.35
35 | O=C(N1CCOCC1)N1CCCC2(CCCNC2)C1 (configuration not stated) | 8.83
36 | COc1ccc(C(=O)NCC(c2cccn2C)N2CCCC2)cc1OC (configuration not stated) | -4.98
37 | Clc1ccc(N2CCC(OCC3CCCCO3)CC2)nc1 (configuration not stated) | -1.36
38 | Cc1nc[nH]c1CN1C[C@@H]2CC[C@H](C1)N(C(=O)CCNS(C)(=O)=O)C2 | -1.67
39 | CC(Oc1ccc(F)cc1)C(=O)N(CC(N)=O)C1CCCC1 (configuration not stated) | 0.347
40 | COc1ccccc1C1(O)CCCN(C(=O)c2csc(C(C)=O)c2)C1 (configuration not stated) | -1.27
41 | CCNC(=O)N(Cc1cccc(OC)c1)C1CCC(O)CC1 (configuration not stated) | 2.57
42 | Cc1nc(-c2cccc(N3CCC(N[C@@H]4CCOC4)CC3)c2)cs1 | 0.567

Row | SMILES | cytotoxicity at 70.5 h [%]
43 | CN(Cc1nnn(CC2CC2)n1)C(=O)c1ccccc1 | 32.1
44 | CCCc1nc(CN(CC)C(=O)c2ccc3c(c2)nnn3C)no1 | -2.39
45 | Cc1ncsc1C(=O)OCCN1CCCc2ccccc21 | -22.3
46 | Cc1cc(NC(=O)CN2CCCC2c2c(C)nn(C)c2C)on1 (configuration not stated) | -2.37
47 | O=C(c1ccc(-c2cccc3c2CCNC3)o1)N1CCOCC1 | -6.54
48 | CN(C)S(=O)(=O)N1C[C@@H](Oc2ccccn2)[C@H]2OCCC[C@H]21 | -7.76
49 | COc1nc2c(cc1C(=O)N(C)Cc1n[nH]c3c1CCCC3)CCC2 | -6.28
50 | Cc1cnc(CNC(=O)[C@@]23CCO[C@@H]2CCN(c2ncccn2)C3)cn1 | -12.7
51 | CNC(=O)c1cccc(CC2COCCN(Cc3ccsc3)C2)n1 (configuration not stated) | -6.49
52 | Cc1ccc(C)c(C(=O)NCC(c2cccn2C)N2CCCCCC2)c1 (configuration not stated) | -1.53
53 | CCN1CCN(c2ccc(NC(=O)CC(C)C)c(C)c2)CC1 | -20.9
54 | CN(C)C(=O)NCc1cc(=O)n2c(n1)CN(Cc1ccoc1)CCC2 | 16.4
55 | CCc1cccc(OCCn2cccc(C#N)c2=O)c1 | -8.55
56 | CC(C)NC(=O)N[C@H]1C[C@@H](c2nc(-c3ccc(F)cc3)no2)N(C)C1 | -4.13
57 | O=C(C1CCC1)N1CCCn2nc(CNc3ncccn3)cc2C1 | 1.42
58 | O=S(=O)(NCC1COc2ccccc2C1)N1CCCC1 (configuration not stated) | -2.58
59 | CCOC(=O)CC1(Nc2nc(C)nc3c2cnn3C)CCCCC1 | -18
60 | Cc1cc(O)cc2c(=O)oc(CC(C)O)cc12 (configuration not stated) | -6.88
61 | Cn1cc(C2(C)CN(Cc3ccc(O)c(Cl)c3)CCO2)cn1 (configuration not stated) | -6.24
62 | C1CCC(CNC2CCCN(Cc3noc(C4CC4)n3)C2)C1 (configuration not stated) | -10.4
63 | COc1ccccc1CC1CCCN(CCC#N)C1 (configuration not stated) | -13.9

Row | SMILES | cytotoxicity at 70.5 h [%]
64 | NC(=O)c1cn(CC2CC2)c(C2CC2)n1 | -7.32
65 | O=C(NC1CC1)c1cc(NC(=O)N2CCCC2)ccc1Cl | -13.8
66 | CC(C)Nc1nc2c(c(NC3CC3)n1)CCN(C1CCOCC1)CC2 | -3.76
67 | Cc1ccc(N2CCC(NC(C)c3ccc(C)o3)CC2)nc1 (configuration not stated) | -4.68
68 | Oc1cc(C2CCNCC2)nc(-c2ccsc2)n1 | -4.35
69 | COCCCN(C)S(=O)(=O)c1ccc(Cl)cc1C#N | -14.2
70 | Cc1cc(NC(=O)NCC(c2ccc(C)o2)N2CCOCC2)n(C)n1 (configuration not stated) | 21
71 | CCS(=O)(=O)N1Cc2nccn2CC(CN2CCCC2)C1 (configuration not stated) | 4.02
72 | O=C(NCCCn1nc2ccccn2c1=O)Nc1ccc(F)cc1F | -8.62
73 | Cc1cc2[nH]c(=O)oc2cc1S(=O)(=O)N1CCC(N2CCCC2=O)CC1 | -9.07
74 | Cc1ccc2c(c1)CCC21CCN(CCO)CC1 | -1.71
75 | O=C(CCOc1ccccc1F)NC1CCCN(c2ccccn2)C1 (configuration not stated) | -5.44
76 | COc1ccc(C(=O)NCCCNc2ncccn2)cc1F | 3.94
77 | COc1ccc(F)c(CN2CCC(c3cc(O)nc(C)n3)C2)c1 (configuration not stated) | 32.2
78 | Fc1ccccc1OCCN1CCCCC1Cn1cncn1 (configuration not stated) | 2.55
79 | Brc1cccnc1OC1CCNCC1 | 23.3
80 | CC1=Nc2c(c(O)nn2C2CCOCC2)C(c2cccnc2)S1 (configuration not stated) | -3.81
81 | CC(=O)NCC1CCN(C(=O)NCc2ccc3c(c2)OCCO3)CC1 | -16.3
82 | O=C(Nc1nnc(C(F)F)s1)NC(CCO)c1cccs1 (configuration not stated) | 32.8
